# Legend:
# Assay in all cases: Test F preemergence test
# [1] = tested on: guineagrass; format: in vivo, Panicum maximum; conditions: scale 0 to 100
# Method in brief: (§1)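 Compounds in a non-phytotoxic solvent formulation with surfactant were applied before emergence after sowing, or, for sugarcane, also postemergence. Evaluation was visual, against controls, after 14 to 21 greenhouse days.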
# [2] = tested on: Surinam grass; format: in vivo, Brachiaria decumbens; conditions: scale 0 to 100
# Method in brief: as §1
# [3] = tested on: large crabgrass; format: in vivo, Digitaria sanguinalis; conditions: Preemergence, scale 0 to 100
# Method in brief: as §1
# [4] = tested on: barnyardgrass; format: in vivo, Echinochloa crus-galli; conditions: scale 0 to 100
# Method in brief: as §1
# [5] = tested on: field bindweed; format: in vivo, Convolvulus arvensis; conditions: scale 0 to 100
# Method in brief: as §1
# [6] = tested on: annual bluegrass; format: in vivo, Poa annua; conditions: scale 0 to 100
# Method in brief: as §1
# [7] = tested on: Italian ryegrass; format: in vivo, Lolium multiflorum; conditions: scale 0 to 100
# Method in brief: as §1
# [8] = tested on: common purslane; format: in vivo, Portulaca oleracea; conditions: scale 0 to 100
# Method in brief: as §1
# [9] = tested on: dallisgrass; format: in vivo, Paspalum dilatatum; conditions: scale 0 to 100
# Method in brief: as §1
# [10] = tested on: mustard; format: in vivo, Brassica nigra; conditions: scale 0 to 100
# Method in brief: as §1
# [11] = tested on: common groundsel; format: in vivo, Senecio vulgaris; conditions: scale 0 to 100
# Method in brief: as §1
# [12] = tested on: southern sandbur; format: in vivo, Cenchrus echinatus; conditions: scale 0 to 100
# Method in brief: as §1
# [13] = tested on: Virginia dayflower; format: in vivo, Commelina virginica; conditions: scale 0 to 100
# Method in brief: as §1
# [14] = tested on: kochia; format: in vivo, Kochia scoparia; conditions: scale 0 to 100
# Method in brief: as §1
# [15] = tested on: quackgrass; format: in vivo, Elytrigia repens; conditions: scale 0 to 100
# Method in brief: as §1
# [16] = tested on: common mallow; format: in vivo, Malva sylvestris; conditions: scale 0 to 100
# Method in brief: as §1
smiles,measurement,setting,value
Cn1nc(C(F)(F)F)c(CS(=O)(=O)c2cccc[n+]2[O-])c1OC(F)F [Compound 4],"Plant response rating, Guineagrass","[1]; 8 g ai/ha, preemergence",50
same,Guineagrass plant response rating,"[1]; 62 g ai/ha, Preemergence",100
same,"Plant response rating, Guineagrass","[1]; Preemergence, 16 g ai/ha",80
same,"Plant response rating, Guineagrass","[1]; Preemergence, 31 g ai/ha",100
same,"Plant response rating, Surinam Grass","[2]; 8 g ai/ha, preemergence",0
same,"Plant response rating, Surinam Grass","[2]; 16 g ai/ha, preemergence",20
same,"Plant response rating, Surinam Grass","[2]; Preemergence, 31 g ai/ha",100
same,"Crabgrass, Large plant response rating",[3]; 62 g ai/ha,100
same,"Plant response rating, Crabgrass, Large",[3]; 16 g ai/ha,70
same,"Plant response rating, Crabgrass, Large",[3]; 31 g ai/ha,70
same,"Plant response rating, Barnyardgrass","[4]; 8 g ai/ha, preemergence",10
same,Barnyardgrass plant response rating,"[4]; 62 g ai/ha, Preemergence",80
same,"Plant response rating, Barnyardgrass","[4]; Preemergence, 16 g ai/ha",65
same,"Plant response rating, Barnyardgrass","[4]; Preemergence, 31 g ai/ha",80
same,"Plant response rating, Field Bindweed","[5]; 8 g ai/ha, preemergence",0
same,Field Bindweed plant response rating,"[5]; 62 g ai/ha, Preemergence",0
same,"Plant response rating, Field Bindweed","[5]; Preemergence, 16 g ai/ha",0
same,"Plant response rating, Field Bindweed","[5]; Preemergence, 31 g ai/ha",0
same,"Plant response rating, Bluegrass","[6]; 8 g ai/ha, preemergence",0
same,Bluegrass plant response rating,"[6]; 62 g ai/ha, Preemergence",75
same,"Plant response rating, Bluegrass","[6]; Preemergence, 16 g ai/ha",0
same,"Plant response rating, Bluegrass","[6]; Preemergence, 31 g ai/ha",20
same,"Plant response rating, Ryegrass, Italian","[7]; 8 g ai/ha, preemergence",0
same,"Ryegrass, Italian plant response rating","[7]; 62 g ai/ha, Preemergence",65
same,"Plant response rating, Ryegrass, Italian","[7]; Preemergence, 16 g ai/ha",0
same,"Plant response rating, Ryegrass, Italian","[7]; Preemergence, 31 g ai/ha",65
same,"Plant response rating, Purslane","[8]; 8 g ai/ha, preemergence",15
same,Purslane plant response rating,"[8]; 62 g ai/ha, Preemergence",20
same,"Plant response rating, Purslane","[8]; Preemergence, 16 g ai/ha",15
same,"Plant response rating, Purslane","[8]; Preemergence, 31 g ai/ha",20
same,"Plant response rating, Dallisgrass","[9]; 8 g ai/ha, preemergence",0
same,Dallisgrass plant response rating,"[9]; 62 g ai/ha, Preemergence",80
same,"Plant response rating, Dallisgrass","[9]; Preemergence, 16 g ai/ha",0
same,"Plant response rating, Dallisgrass","[9]; Preemergence, 31 g ai/ha",35
same,"Plant response rating, Black Mustard","[10]; 8 g ai/ha, preemergence",0
same,Black Mustard plant response rating,"[10]; 62 g ai/ha, Preemergence",98
same,"Plant response rating, Black Mustard","[10]; Preemergence, 16 g ai/ha",20
same,"Plant response rating, Black Mustard","[10]; Preemergence, 31 g ai/ha",98
same,"Plant response rating, Groundsel","[11]; 8 g ai/ha, preemergence",10
same,Groundsel plant response rating,"[11]; 62 g ai/ha, Preemergence",100
same,"Plant response rating, Groundsel","[11]; Preemergence, 16 g ai/ha",25
same,"Plant response rating, Groundsel","[11]; Preemergence, 31 g ai/ha",100
same,"Plant response rating, Sandbur","[12]; 8 g ai/ha, preemergence",25
same,"Plant response rating, Sandbur","[12]; 16 g ai/ha, preemergence",90
same,Sandbur plant response rating,"[12]; 62 g ai/ha, Preemergence",100
same,"Plant response rating, Sandbur","[12]; Preemergence, 31 g ai/ha",100
same,"Plant response rating, Dayflower","[13]; 8 g ai/ha, preemergence",0
same,Dayflower plant response rating,"[13]; 62 g ai/ha, Preemergence",90
same,"Plant response rating, Dayflower","[13]; Preemergence, 16 g ai/ha",0
same,"Plant response rating, Dayflower","[13]; Preemergence, 31 g ai/ha",90
same,"Plant response rating, Kochia","[14]; 8 g ai/ha, preemergence",0
same,Kochia plant response rating,"[14]; 62 g ai/ha, Preemergence",75
same,"Plant response rating, Kochia","[14]; Preemergence, 16 g ai/ha",0
same,"Plant response rating, Kochia","[14]; Preemergence, 31 g ai/ha",75
same,"Plant response rating, Quackgrass","[15]; 8 g ai/ha, preemergence",0
same,Quackgrass plant response rating,"[15]; 62 g ai/ha, Preemergence",75
same,"Plant response rating, Quackgrass","[15]; Preemergence, 16 g ai/ha",0
same,"Plant response rating, Quackgrass","[15]; Preemergence, 31 g ai/ha",35
same,"Plant response rating, Mallow","[16]; 8 g ai/ha, preemergence",0
same,Mallow plant response rating,"[16]; 62 g ai/ha, Preemergence",0
same,"Plant response rating, Mallow","[16]; Preemergence, 16 g ai/ha",0
same,"Plant response rating, Mallow","[16]; Preemergence, 31 g ai/ha",0

# From patent publication US20100298141A1, “SUBSTITUTED PYRIDINE N-OXIDE HERBICIDES” (E. I. DU PONT DE NEMOURS AND COMPANY, priority 2007, published 2010)
